Reference: patent publication US9433622B2, “Pyrimidine compounds useful in the treatment of diseases mediated by IKKE and/or TBK1 mechanisms” (DOMAINEX LIMITED, priority 2013, dated 2016)

How the values were obtained:
IKKε = IKKε (Homo sapiens (Human), UniProt Q14164); test: Lanthascreen TR-FRET kinase inhibition assay, IKKε; assay type: biochemical; details: 20 μM ATP (apparent Km), 2 nM kinase, 1 h
Method in brief: (§1)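 TR-FRET: terbium phosphospecific antibody detects phosphorylation of 400 nM fluorescein-IkBα peptide, 20 μM ATP, 20 °C, HEPES pH 7.5 with 3% DMSO. IKKε at 2 nM, 1 h reaction; TBK1 at 8 nM, 2.5 h reaction; started by kinase addition.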

TBK1 = TBK1 (Homo sapiens (Human), UniProt Q9UHD2); test: Lanthascreen TR-FRET kinase inhibition assay, TBK1; assay type: biochemical; details: 20 μM ATP (apparent Km), 8 nM kinase, 2.5 h
TBK1, sequence (Q9UHD2 whole entry): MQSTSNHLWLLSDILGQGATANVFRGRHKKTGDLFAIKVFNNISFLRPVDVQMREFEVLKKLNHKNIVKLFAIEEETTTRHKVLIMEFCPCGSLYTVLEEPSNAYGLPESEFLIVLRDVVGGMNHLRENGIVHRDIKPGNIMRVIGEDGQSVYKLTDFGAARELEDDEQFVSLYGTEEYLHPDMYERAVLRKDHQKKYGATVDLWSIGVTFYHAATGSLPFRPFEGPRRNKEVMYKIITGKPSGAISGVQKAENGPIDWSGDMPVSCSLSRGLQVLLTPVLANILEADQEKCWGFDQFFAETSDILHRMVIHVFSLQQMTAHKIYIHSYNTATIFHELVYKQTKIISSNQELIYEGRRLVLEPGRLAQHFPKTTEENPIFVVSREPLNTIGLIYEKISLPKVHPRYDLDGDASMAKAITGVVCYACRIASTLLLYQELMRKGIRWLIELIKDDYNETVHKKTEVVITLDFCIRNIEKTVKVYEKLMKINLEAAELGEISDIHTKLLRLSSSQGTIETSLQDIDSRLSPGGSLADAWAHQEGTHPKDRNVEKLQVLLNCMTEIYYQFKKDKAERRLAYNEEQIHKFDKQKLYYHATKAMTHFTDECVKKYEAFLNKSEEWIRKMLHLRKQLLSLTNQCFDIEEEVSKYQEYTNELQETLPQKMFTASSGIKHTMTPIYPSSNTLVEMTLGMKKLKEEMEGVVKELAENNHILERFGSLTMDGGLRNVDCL
Method in brief: as §1

IKKε, sequence (Q14164 whole entry): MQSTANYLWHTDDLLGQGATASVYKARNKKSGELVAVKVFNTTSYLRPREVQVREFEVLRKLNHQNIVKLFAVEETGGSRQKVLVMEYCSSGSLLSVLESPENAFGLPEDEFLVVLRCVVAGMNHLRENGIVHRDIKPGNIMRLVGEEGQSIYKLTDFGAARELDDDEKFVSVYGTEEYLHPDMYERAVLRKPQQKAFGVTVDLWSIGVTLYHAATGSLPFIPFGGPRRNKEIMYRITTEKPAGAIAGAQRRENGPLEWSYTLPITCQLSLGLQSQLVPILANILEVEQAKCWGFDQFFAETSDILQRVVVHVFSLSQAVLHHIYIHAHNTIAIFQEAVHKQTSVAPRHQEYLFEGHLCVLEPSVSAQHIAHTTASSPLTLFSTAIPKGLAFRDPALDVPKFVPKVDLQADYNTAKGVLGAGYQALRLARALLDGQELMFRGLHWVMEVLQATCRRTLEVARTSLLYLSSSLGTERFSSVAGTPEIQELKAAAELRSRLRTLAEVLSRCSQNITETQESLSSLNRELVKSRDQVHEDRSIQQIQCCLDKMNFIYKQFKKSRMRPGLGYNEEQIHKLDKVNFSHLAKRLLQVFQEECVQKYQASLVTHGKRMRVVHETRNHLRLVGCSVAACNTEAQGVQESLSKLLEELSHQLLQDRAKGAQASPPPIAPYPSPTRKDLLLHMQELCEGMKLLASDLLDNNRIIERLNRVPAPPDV

IC50 (IKKε) [nM]	IC50 (TBK1) [nM]	SMILES
< 30	< 30	N#Cc1cc(-c2ccnc(Nc3ccnc(N4CCOCC4)c3)n2)cnc1N1CC[C@H](O)C1 [DMX-71, 2-((S)-3-Hydroxy-pyrrolidin 1-yl)-5-[2-(2-morpholin-4-yl-pyridin-4-ylamino)-pyrimidin-4-yl]-nicotinonitrile]
< 30	< 15	COCCNc1cc(Nc2nccc(-c3cnc(N4CC[C@H](F)C4)c(C#N)c3)n2)ccn1 [DMX-72, 2-((S)-3-Fluoro-pyrrolidin-1-yl)-5-{2-[2-(2-methoxy-ethylamino)-pyridin-4-ylamino]-pyrimidin-4-yl}-nicotinonitrile]
< 1000	< 1000	N#Cc1cc(-c2ccnc(Nc3cccc(=O)[nH]3)n2)cnc1N1CC[C@H](F)C1 [DMX-73, 2-((S)-3-Fluoro-pyrrolidin-1-yl)-5-[2-(6-oxo-1,6-dihydro-pyridin-2-ylamino)-pyrimidin-4-yl]-nicotinonitrile]
< 100	< 100	CN(C(=O)CN1CCOCC1)c1ccc(Nc2nccc(-c3cnc(N4CC[C@H](F)C4)c(C#N)c3)n2)cn1 [DMX-74, N-(5-{4-[5-Cyano-6-((S)-3-fluoro-pyrrolidin-1-yl)-pyridin-3-yl]-pyrimidin-2-ylamino}-pyridin-2-yl)-N-methyl-2-morpholin-4-yl-acetamide]
< 1000	< 1000	CN(C(=O)CN1CCOCC1)c1ccc(Nc2nccc(-c3cnc(N4CC[C@H](O)C4)c(C#N)c3)n2)cn1 [DMX-75, N-(5-{4-[5-Cyano-6-((S)-3-hydroxy-pyrrolidin-1-yl)-pyridin-3-yl]-pyrimidin-2-ylamino}-pyridin-2-yl)-N-methyl-2-morpholin-4-yl-acetamide]
< 15	< 15	CN1Cc2ccc(Nc3nccc(-c4cnc(N5CC[C@H](F)C5)c(C#N)c4)n3)cc2C1 [DMX-76, 2-((S)-3-Fluoro-pyrrolidin-1-yl)-5-[2-(2-methyl-2,3-dihydro-1H-isoindol-5-ylamino)-pyrimidin-4-yl]-nicotinonitrile]
< 100	< 100	COCCNCc1ccc(Nc2nccc(-c3cnc(N4CC[C@H](F)C4)c(C#N)c3)n2)cn1 [DMX-77, 2-((S)-3-Fluoro-pyrrolidin-1-yl)-5-(2-{6-[(2-methoxy-ethylamino)-methyl]-pyridin-3-ylamino}-pyrimidin-4-yl)-nicotinonitrile]
< 30	< 15	C[C@H]1COCCN1Cc1cc(Nc2nccc(-c3cnc(N4CC[C@H](F)C4)c(C#N)c3)n2)ccn1 [DMX-78, 2-((S)-3-Fluoro-pyrrolidin-1-yl)-5-{2-[2-((S)-3-methyl-morpholin-4-ylmethyl)-pyridin-4-ylamino]-pyrimidin-4-yl}-nicotinonitrile]
< 100	< 30	C[C@H]1COCCN1Cc1ccc(Nc2nccc(-c3cnc(N4CC[C@H](F)C4)c(C#N)c3)n2)cn1 [DMX-79, 2-((S)-3-Fluoro-pyrrolidin-1-yl)-5-{2-[6-((S)-3-methyl-morpholin-4-ylmethyl)-pyridin-3-ylamino]-pyrimidin-4-yl}-nicotinonitrile]
< 15	< 30	N#Cc1cc(-c2ccnc(Nc3ccc(CN4CC[C@H](F)C4)nc3)n2)cnc1N1CC[C@H](F)C1 [DMX-80, 2-((S)-3-Fluoro-pyrrolidin-1-yl)-5-{2-[6-((S)-3-fluoro-pyrrolidin-1-ylmethyl)-pyridin-3-ylamino]-pyrimidin-4-yl}-nicotinonitrile]
< 30	< 30	Cc1nccn1Cc1ccc(Nc2nccc(-c3cnc(N4CC[C@H](F)C4)c(C#N)c3)n2)cn1 [DMX-81, 2-((S)-3-Fluoro-pyrrolidin-1-yl)-5-{2-[6-(2-methyl-imidazol-1-ylmethyl)-pyridin-3-ylamino]-pyrimidin-4-yl}-nicotinonitrile]
< 100	< 100	COCCN(C)Cc1ccc(Nc2nccc(-c3cnc(N4CC[C@H](F)C4)c(C#N)c3)n2)cn1 [DMX-82, 2-((S)-3-Fluoro-pyrrolidin-1-yl)-5-[2-(6-{[(2-methoxy-ethyl)-methyl-amino]-methyl}-pyridin-3-ylamino)-pyrimidin-4-yl]-nicotinonitrile]
< 30	< 30	COC1CN(Cc2ccc(Nc3nccc(-c4cnc(N5CC[C@H](F)C5)c(C#N)c4)n3)cn2)C1 [DMX-83, 2-((S)-3-Fluoro-pyrrolidin-1-yl)-5-{2-[6-(3-methoxy-azetidin-1-ylmethyl)-pyridin-3-ylamino]-pyrimidin-4-yl}-nicotinonitrile]
< 100	< 100	N#Cc1cc(-c2ccnc(Nc3ccc(CN4CCOCC4)nc3)n2)cnc1N1CCCOCC1 [DMX-84, 5-[2-(6-Morpholin-4-ylmethyl-pyridin-3-ylamino)-pyrimidin-4-yl]-2-[1,4]oxazepan-4-yl-nicotinonitrile]
< 100	< 100	N#Cc1cc(-c2ccnc(Nc3ccc(NC(=O)CN4CCOCC4)nc3)n2)cnc1N1CCCOCC1 [DMX-85, N-{5-[4-(5-Cyano-6-[1,4]oxazepan-4-yl-pyridin-3-yl)-pyrimidin-2-ylamino]-pyridin-2-yl}-2-morpholin-4-yl-acetamide]
< 1000	< 100	N#Cc1cc(-c2nc(Nc3ccc(NC(=O)CN4CCOCC4)nc3)ncc2F)cnc1N1CCCOCC1 [DMX-86, N-{5-[4-(5-Cyano-6-[1,4]oxazepan-4-yl-pyridin-3-yl)-5-fluoro-pyrimidin-2-ylamino]-pyridin-2-yl}-2-morpholin-4-yl-acetamide]
< 100	< 100	N#Cc1cc(-c2nc(Nc3ccc(CN4CCOCC4)nc3)ncc2F)cnc1N1CCCOCC1 [DMX-87, 5-[5-Fluoro-2-(6-morpholin-4-ylmethyl-pyridin-3-ylamino)-pyrimidin-4-yl]-2-[1,4]oxazepan-4-yl-nicotinonitrile]
< 100	< 100	N#Cc1cc(-c2nc(Nc3ccc(NC(=O)CN4CCOCC4)nc3)ncc2F)cnc1N1CC[C@H](F)C1 [DMX-88, N-(5-{4-[5-Cyano-6-((S)-3-fluoro-pyrrolidin-1-yl)-pyridin-3-yl]-5-fluoro-pyrimidin-2-ylamino}-pyridin-2-yl)-2-morpholin-4-yl-acetamide]
< 30	< 15	N#Cc1cc(-c2nc(Nc3ccc(CN4CCOCC4)nc3)ncc2F)cnc1N1CC[C@H](F)C1 [DMX-89, 5-[5-Fluoro-2-(6-morpholin-4-ylmethyl-pyridin-3-ylamino)-pyrimidin-4-yl]-2-((S)-3-fluoro-pyrrolidin-1-yl)-nicotinonitrile]
< 30	< 100	N#Cc1cc(-c2ccnc(Nc3ccc(CN4CCOCC4)nc3)n2)cnc1N1CCC2(COC2)C1 [DMX-92, 5-[2-(6-Morpholin-4-ylmethyl-pyridin-3-ylamino)-pyrimidin-4-yl]-2-(2-oxa-6-aza-spiro[3.4]oct-6-yl)-nicotinonitrile]
< 100	< 100	N#Cc1cc(-c2ccnc(Nc3ccnc(NC(=O)CN4CCOCC4)c3)n2)cnc1N1CCC2(COC2)C1 [DMX-93, N-(4-{4-[5-Cyano-6-(2-oxa-6-aza-spiro[3.4]oct-6-yl)-pyridin-3-yl]-pyrimidin-2-ylamino}-pyridin-2-yl)-2-morpholin-4-yl-acetamide]
< 1000	< 100	N#Cc1cc(-c2nc(Nc3ccnc(NC(=O)CN4CCOCC4)c3)ncc2F)cnc1N1CCCOCC1 [DMX-94, N-{4-[4-(5-Cyano-6-[1,4]oxazepan-4-yl-pyridin-3-yl)-5-fluoro-pyrimidin-2-ylamino]-pyridin-2-yl}-2-morpholin-4-yl-acetamide]
< 1000	< 100	COCCNc1cc(Nc2ncc(F)c(-c3cnc(N4CCCOCC4)c(C#N)c3)n2)ccn1 [DMX-95, 5-{5-Fluoro-2-[2-(2-methoxy-ethylamino)-pyridin-4-ylamino]-pyrimidin-4-yl}-2-[1,4]oxazepan-4-yl-nicotinonitrile]
< 30	< 15	CC(c1ccc(Nc2nccc(-c3cnc(N4CC[C@H](F)C4)c(C#N)c3)n2)cn1)N1CCOCC1 (stereo partly drawn) [DMX-96, 2-((S)-3-Fluoro-pyrrolidin-1-yl)-5-{2-[6-(1-morpholin-4-yl-ethyl)-pyridin-3-ylamino]-pyrimidin-4-yl}-nicotinonitrile]
< 100	< 30	CO[C@H]1CCN(Cc2ccc(Nc3nccc(-c4cnc(N5CC[C@H](F)C5)c(C#N)c4)n3)cn2)C1 [DMX-97, 2-((S)-3-Fluoro-pyrrolidin-1-yl)-5-{2-[6-((S)-3-methoxy-pyrrolidin-1-ylmethyl)-pyridin-3-ylamino]-pyrimidin-4-yl}-nicotinonitrile]
< 30	< 30	CS(=O)(=O)CCNCc1ccc(Nc2nccc(-c3cnc(N4CC[C@H](F)C4)c(C#N)c3)n2)cn1 [DMX-98, 2-((S)-3-Fluoro-pyrrolidin-1-yl)-5-(2-{6-[(2-methanesulfonyl-ethylamino)-methyl]-pyridin-3-ylamino}-pyrimidin-4-yl)-nicotinonitrile]
< 30	< 15	N#Cc1cc(-c2ccnc(Nc3ccnc(CN4CCOCC4)c3)n2)cnc1N1CC[C@H](F)C1 [DMX-99, 2-((S)-3-Fluoro-pyrrolidin-1-yl)-5-[2-(2-morpholin-4-ylmethyl-pyridin-4-ylamino)-pyrimidin-4-yl]-nicotinonitrile]
< 30	< 30	N#Cc1cc(-c2ccnc(Nc3cncc(CN4CCOCC4)c3)n2)cnc1N1CC[C@H](F)C1 [DMX-100, 2-((S)-3-Fluoro-pyrrolidin-1-yl)-5-[2-(5-morpholin-4-ylmethyl-pyridin-3-ylamino)-pyrimidin-4-yl]-nicotinonitrile]
< 30	< 30	CN(CCO)c1cc(Nc2nccc(-c3cnc(N4CC[C@H](F)C4)c(C#N)c3)n2)ccn1 [DMX-101, 2-((S)-3-Fluoro-pyrrolidin-1-yl)-5-(2-{2-[(2-hydroxy-ethyl)-methyl-amino]-pyridin-4-ylamino}-pyrimidin-4-yl)-nicotinonitrile]
